Converted amounts (≈) assume the structure as drawn.
How the values were obtained:
Type in all cases: physicochemical
[1] = Solubility of crystalline forms in simulated gastric fluid (SGF)
Description: (§1) The UPLC data of the present disclosure were collected on Waters H Class, with photo-diode array detector. The UPLC parameters for purity and solubility test of the present disclosure were as follows: • 1. Column: Waters Xbridge C18, 150×4.6 mm, 5 μm • 2. Mobile phase: A: 0.05% trifluoroacetic acid in water; B: 0.05% trifluoroacetic acid in acetonitrile
Suspend Forms D, AL, and Z of the present disclosure and Form B in the prior art in simulated gastric fluid (SGF) to form suspensions, respectively. After equilibrium for 1 hour, 2 hours and 4 hours, filter the suspensions to form saturated solutions. Determine the concentration of API in corresponding saturated solution by HPLC.

[2] = Crystal habit study (PLM); conditions: for Crystal habit (PLM): dispersed in vacuum pump oil; for Powder flow property: inferred from PLM crystal habit
Procedure: The polarized light microscope photos of the present disclosure were taken at room temperature with a Zeiss microscope Axio Scope.A1 equipped with an Axiocam 305 color camera and 5×, 10×, 20× and 50× objective lenses.
Weigh about 10 mg of Forms Z and AL of the present disclosure onto a glass slide, respectively. Disperse each solid with several vacuum pump oil, and then cover with a cover glass. Observe the sample using PLM.

[3] = Particle size distribution study (laser particle size analyzer); conditions: for D10 / D50 / D90 / MV: wet method, Isopar G (0.2% lecithin), sonication 30 s
Procedure: The particle size distribution results of the present disclosure were collected on S3500-type laser particle size analyzer of the Microtrac company. The Microtrac S3500 was equipped with an SDC (Sample Delivery Controller) sampling system. The wet method was used in this test, using Isopar G (containing 0.2% lecithin) as the test dispersion medium. The process parameters of the laser particle size analyzer were as follows.
Approximately 10-30 mg of Form D of the present disclosure and Form B in the prior art were added into 5 mL Isopar G (0.2% lecithin) to form a suspension, respectively. The suspension was mixed well and then loaded into SDC loading system. Adjust the shading intensity to an appropriate range, and then started to collect data after sonication for 30 s. The results were summarized in Table 20, and the particle size distribution diagrams of Form D and Form B were shown in FIGS. 35 to 36, respectively.

[4] = Solubility of crystalline forms in fasted-state simulated intestinal fluid (FaSSIF)
Description: as §1
Suspend Forms D and Z of the present disclosure and Form B in the prior art in fasted-state simulated intestinal fluid (FaSSIF) to form suspensions, respectively. After equilibrium for 1 hour, 2 hours and 4 hours, filter the suspensions to form saturated solutions. Determine the concentration of API in corresponding saturated solution by HPLC.

[5] = Hygroscopicity study (DVS); conditions: for Water uptake at 80% RH: 25° C.; for Hygroscopicity: class per Chinese Pharmacopoeia 2010
Procedure: The dynamic vapor sorption diagrams of the present disclosure were collected on Intrinsic-type and Intrinsic Plus-type dynamic vapor sorption instruments of SMS company. The process parameters of the dynamic vapor sorption test of the present disclosure were as follows: • Temperature: 25° C. • Protection gas and its flow rate: N2, 200 mL/minute • dm/dt: 0.002%/minute • Minimum dm/dt equilibration time: 10 minutes • Maximum Equilibration Time: 180 minutes • Relative humidity range: 0% RH-95% RH-0% RH • Relative humidity gradient: 10% (0% RH-90% RH-0% RH), 5% (90% RH-95% RH and 95% RH-90% RH).
Weigh approximately 10 mg of Form Z of the present disclosure and Form B in the prior art for DVS test, and then collect the obtained solid for XRPD analysis. The results were summarized in Table 19, DVS plot of Form B was shown in FIG. 29, XRPD overlay of Form B was shown in FIG. 30, DVS plot of Form Z was shown in FIG. 31, and XRPD overlay of Form Z was shown in FIG. 32.
Description and definition of hygroscopicity (see appendix XIX J, guidance for hygroscopicity evaluation of Pharmacopoeia of the People's Republic of China 2010) • Deliquescent: sufficient water is absorbed to form a liquid, • Very hygroscopic: increase in mass is equal to or greater than 15 percent, • Hygroscopic: increase in mass is less than 15 percent and equal to or greater than 2 percent, • Slightly hygroscopic: increase in mass is less than 2 percent and equal to or greater than 0.2 percent. • Non-hygroscopic: increase in mass is less than 0.2 percent.

Structure (SMILES) | Solubility compared with Form B [1] | Solubility in SGF ([1]; equilibrium 1 hr) [µg/mL] | Solubility in SGF ([1]; equilibrium 2 hr) [µg/mL] | Solubility in SGF ([1]; equilibrium 4 hr) [µg/mL] | Crystal habit (PLM) [2] | Powder flow property [2] | D10 [3] [μm] | D50 [3] [μm] | D90 [3] [μm] | MV [3] [μm] | Solubility in FaSSIF ([4]; equilibrium 1 hr) [µg/mL] | Solubility in FaSSIF ([4]; equilibrium 2 hr) [µg/mL] | Solubility in FaSSIF ([4]; equilibrium 4 hr) [µg/mL] | Water uptake at 80% RH [5] | Hygroscopicity [5] | Solubility compared with Form B [4] | further results
CC(C)c1nc2cc(O)ccc2c(=O)n1-c1ccc(C#N)cc1 [Form AL, 4-(7-hydroxy-4-oxo-2-propan-2-ylquinazolin-3-yl) benzonitrile] | better solubility than Form B | 77.4 (≈ 253 µM) | 78.8 (≈ 258 µM) | 79.5 (≈ 260 µM) | regular particles | relatively good property on powder flow | – | – | – | – | – | – | – | – | – | – | –
CC(C)c1nc2cc(O)ccc2c(=O)n1-c1ccc(C#N)cc1 [Form B, 4-(7-hydroxy-4-oxo-2-propan-2-ylquinazolin-3-yl) benzonitrile, reference compound] | – | 77.5 (≈ 254 µM) | – | – | – | – | 62.3 | 1085.0 | 1331.0 | 795.2 | 33.3 (≈ 109 µM) | 34.8 (≈ 114 µM) | 35.9 (≈ 118 µM) | 0.2485 | Slightly hygroscopic (increase in mass is less than 2 percent and equal to or greater than 0.2 percent) | – | solubility at 2 h ([1]; simulated gastric fluid (SGF), simulated gastric fluid, thermodynamic from solid, equilibrium 2 hr): 75.2 µg/mL (≈ 246 µM); solubility at 4 h ([1]; simulated gastric fluid (SGF), simulated gastric fluid, thermodynamic from solid, equilibrium 4 hr): 73.6 µg/mL (≈ 241 µM)
CC(C)c1nc2cc(O)ccc2c(=O)n1-c1ccc(C#N)cc1 [Form D, 4-(7-hydroxy-4-oxo-2-propan-2-ylquinazolin-3-yl) benzonitrile] | better solubility than Form B | 98.7 (≈ 323 µM) | 95.4 (≈ 312 µM) | 103.3 (≈ 338 µM) | – | – | 53.9 | 117.2 | 175.9 | 116.2 | – | 88.3 (≈ 289 µM) | 87.1 (≈ 285 µM) | – | – | better solubility than Form B | Uniformity of particle size distribution compared with Form B [3]: more uniform particle size distribution than Form B
CC(C)c1nc2cc(O)ccc2c(=O)n1-c1ccc(C#N)cc1 [Form Z, 4-(7-hydroxy-4-oxo-2-propan-2-ylquinazolin-3-yl) benzonitrile] | better solubility than Form B | 79.6 (≈ 261 µM) | 90.7 (≈ 297 µM) | 86.7 (≈ 284 µM) | regular particles | relatively good property on powder flow | – | – | – | – | 31.4 (≈ 103 µM) | 42.7 (≈ 140 µM) | – | 0.0303 | Non-hygroscopic (increase in mass is less than 0.2 percent) | better solubility than Form B | solubility at 4 h ([4]; fasted-state simulated intestinal fluid (FaSSIF), thermodynamic from solid, equilibrium 4 hr): 56.1 µg/mL (≈ 184 µM); Hygroscopicity compared with Form B [5]: relatively lower hygroscopicity than Form B

Source: patent US20230416207A1, “CRYSTALLINE FORMS OF QUINAZOLINONE COMPOUND AND PROCESS FOR PREPARING THE SAME” (priority 2020, published 2023)
